Laboratory results: patent US8129406B2, “Nonpeptide inhibitors of matrix metalloproteinases” (Southern Research Institute, priority 2004, dated 2012)

Legend:
[1] = molecular target: Endopeptidase; assay: Enzyme inhibition assay, endopeptidase (other zinc-protease control); format: biochemical; conditions: for IC50: read-out: Inhibition Potencies, IC50, Endopeptidase
Description: (§1) Human rMMP-2 and -9 were purified in active forms, and purified MMP-1, -3 and -13 were obtained from commercial sources (Chemicon; Temecula, Calif.) in zymogen form and were activated by 1 mM APMA or PCMB treatment (2 hrs at 37° C.). For kinetic studies, a standard fluorimetric assay based on hydrolysis of fluorogenic synthetic substrate (1 μM of McaPLGLDpaAR) was used. For each assay, target MMP (1 μM) and increasing concentrations of test compound were incubated at 25° C. for 30-60 min and the rate of substrate hydrolysis was measured by Perkin-Elmer fluorometer at an excitation 328 nm and an emission 393 nm settings. Both concentration and time-dependent cleavage were monitored. Controls included trypsin (non-specific cleavage) and bacterial collagenase (total cleavage) and other zinc-protease (ACE, endopeptidase). IC50 values (the concentration at which 50% enzyme activity is inhibited) were determined by plots of % activity versus negative log of agent concentration. The IC50 values were converted to Ki values using the equation, Ki=IC50/(1+S/Km). The Km values (μM) were calculated from the […] values of 3-5 separate experiments. Inhibition kinetics of various MMPs were also determined using substrate-degradation ELISA kits from Chemicon (Temecula, Calif.). See C. Knight, et al., FEBS Lett., 1992, 296, 263-266; L. Windsor, et al., Biochem. Biophys. Acta […], 1334, 261-272, which are incorporated by reference herein for their teachings of enzyme inhibition assays.

[2] = molecular target: T1, MMP-3 (Homo sapiens, UniProt P08254); assay: Enzyme inhibition assay, fluorometric substrate degradation, MMP-3; format: biochemical; conditions: Minienzyme used; read-out: Inhibition Potencies, IC50, MMP-3
T1 construct: purchased Chemicon
T1 sequence (P08254 100-477, species assumed): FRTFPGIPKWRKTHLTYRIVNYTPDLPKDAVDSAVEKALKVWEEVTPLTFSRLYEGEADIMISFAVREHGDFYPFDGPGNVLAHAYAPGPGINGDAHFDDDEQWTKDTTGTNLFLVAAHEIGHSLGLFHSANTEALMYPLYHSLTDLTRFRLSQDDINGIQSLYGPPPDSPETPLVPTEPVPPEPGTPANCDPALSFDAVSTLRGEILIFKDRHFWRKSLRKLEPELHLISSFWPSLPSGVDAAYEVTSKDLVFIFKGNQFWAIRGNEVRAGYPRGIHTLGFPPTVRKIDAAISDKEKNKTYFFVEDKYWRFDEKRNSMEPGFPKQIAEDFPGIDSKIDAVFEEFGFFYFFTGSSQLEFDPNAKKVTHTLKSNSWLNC
Description: as §1
MMP inhibitor selectivity determinations: Both quantitative labeled-substrate and FITC-biopeptide (matrix-specific) assays were used to examine the selective inhibition of MMP activities. Substrate specificity for MMP-1, -2, and -9 was assessed by degradation of labeled-collagen I and IV. Typically, MMP-dependent biomatrix degradation was monitored in the presence and absence of candidate compounds (0.5-500 μm) after 60-90 min incubations. Inhibitory potency and selectivity was also analyzed using a gelatin or collagen zymography followed by densitometric analysis. […]

[3] = test system: nontumorigenic human fibroblasts cells (HF); assay: Functional evaluation in Amgel models, nontumorigenic fibroblasts; format: cell-based
[4] = Cell proliferation and cell viability at the tested concentrations; format: cell-based; conditions: at the tested concentrations (data not shown)
[5] = molecular target: T2, MMP-2 (Homo sapiens, UniProt P08253); assay: Enzyme inhibition assay, fluorometric substrate degradation, MMP-2; format: biochemical; conditions: purified human rMMP-2, fluorogenic substrate; read-out: Inhibition Potencies, IC50, MMP-2
T2 construct: Human rMMP-2 and -9 were purified in active forms; made in house
T2 sequence (P08253 110-660): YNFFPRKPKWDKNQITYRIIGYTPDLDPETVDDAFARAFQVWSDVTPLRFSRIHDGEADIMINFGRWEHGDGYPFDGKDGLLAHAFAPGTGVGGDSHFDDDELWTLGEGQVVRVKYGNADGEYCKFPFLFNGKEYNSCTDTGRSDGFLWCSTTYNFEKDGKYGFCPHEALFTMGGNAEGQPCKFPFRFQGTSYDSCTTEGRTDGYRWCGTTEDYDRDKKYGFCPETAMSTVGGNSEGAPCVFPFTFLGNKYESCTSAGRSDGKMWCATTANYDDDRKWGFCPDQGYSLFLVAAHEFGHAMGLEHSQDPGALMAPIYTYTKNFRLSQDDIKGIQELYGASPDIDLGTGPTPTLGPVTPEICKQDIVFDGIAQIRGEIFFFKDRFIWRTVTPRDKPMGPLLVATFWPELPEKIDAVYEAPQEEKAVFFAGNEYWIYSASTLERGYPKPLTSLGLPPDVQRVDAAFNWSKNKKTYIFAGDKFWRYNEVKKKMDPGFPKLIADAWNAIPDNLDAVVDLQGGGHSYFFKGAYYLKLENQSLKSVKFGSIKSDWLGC
Description: (§2) For kinetic studies, a standard fluorimetric assay based on hydrolysis of fluorogenic synthetic substrate (1 μM of McaPLGLDpaAR) was used. […] Both concentration and time-dependent cleavage were monitored. Controls included trypsin (non-specific cleavage) and bacterial collagenase (total cleavage) and other zinc-protease (ACE, endopeptidase). […] The IC50 values were converted to Ki values using the equation, Ki=IC50/(1+S/Km). […] Inhibition kinetics of various MMPs were also determined using substrate-degradation ELISA kits from Chemicon (Temecula, Calif.). See C.
(§3) Substrate specificity for MMP-1, -2, and -9 was assessed by degradation of labeled-collagen I and IV. […] Inhibitory potency and selectivity was also analyzed using a gelatin or collagen zymography followed by densitometric analysis. Labeled collagen I or IV degradation assay (zymography) was used for M-1, -2 and -9 activities and their inhibition. Bacterial collagenase and EDTA (10 mM) was included as positive and negative controls. In situ zymography film technique was also used for measurement of MMP-2 and MMP-9 (gelatinolytic) activities and their inhibition by drug treatment in target cells and tissue samples.

[6] = molecular target: T3, MMP-9 (Homo sapiens, UniProt P14780); assay: Enzyme inhibition assay, fluorometric substrate degradation, MMP-9; format: biochemical; conditions: purified human rMMP-9, fluorogenic substrate; read-out: Inhibition Potencies, IC50, MMP-9
T3 construct: Human rMMP-2 and -9 were purified in active forms; made in house
T3 sequence (P14780 107-707 limits assumed): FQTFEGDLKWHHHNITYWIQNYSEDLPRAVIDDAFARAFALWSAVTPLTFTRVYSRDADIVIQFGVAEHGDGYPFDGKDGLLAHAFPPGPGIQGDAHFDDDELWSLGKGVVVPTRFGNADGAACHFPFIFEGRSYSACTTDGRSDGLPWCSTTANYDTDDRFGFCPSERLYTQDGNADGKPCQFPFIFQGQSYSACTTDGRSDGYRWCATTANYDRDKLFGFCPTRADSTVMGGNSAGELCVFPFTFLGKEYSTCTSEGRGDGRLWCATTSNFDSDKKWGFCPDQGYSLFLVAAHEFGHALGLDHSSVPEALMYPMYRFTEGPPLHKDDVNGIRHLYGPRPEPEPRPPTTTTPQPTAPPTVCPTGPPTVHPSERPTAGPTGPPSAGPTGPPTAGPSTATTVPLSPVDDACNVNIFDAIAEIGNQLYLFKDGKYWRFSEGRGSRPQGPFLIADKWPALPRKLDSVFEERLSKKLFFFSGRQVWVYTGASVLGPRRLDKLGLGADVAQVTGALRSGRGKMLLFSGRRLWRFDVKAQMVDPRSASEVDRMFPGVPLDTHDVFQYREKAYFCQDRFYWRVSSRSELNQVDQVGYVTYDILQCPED
Description: as §2, §3

[7] = test system: HT-1080R; assay: Amgel human tumor cell invasion bioassay, HT-1080R; format: cell-based; conditions: 72 hours incubation at 50-100 μM
Description: (§4) Human tumor cell invasion bioassay: Amgel-coated filters (8 μm) were used as tissue biomatrix barriers placed between Lucite chambers. Labeled cells (50,000) were seeded onto reconstituted-Amgel filters (75 μg) and the lower chambers were filled with media containing 5% dialyzed serum. Test compounds (0.5-100 μM) were added and incubated for 72 hours. Contents from the lower chamber were collected to resolve cell-bound and free radioactivity. See G. Siegal, et al., Cancer Lett. 1993, 69, 123-132; L. Goodly, et al., Tumor Biology 1994, 15, 326-336; M. Ikeda, et al., Clin. Cancer. Res. 2000, 6, 3290-3296; R. Singh, et al., In Vitro Cell Develop. Biol., 2002, 38, 11.
(§5) Evaluation of the compounds 1c and 2c in Amgel human tumor invasion and angiogenesis models (72 hours incubation at 50-100 μM) was performed using two human HT-1080 cancer cell sublines (HT-1080-B and HT-1080-R). The results of these assays with compound 2c are shown in Table 2 and FIG. 1 (data for compound 1 c not shown).

[8] = test system: HF; assay: Amgel human tumor angiogenesis bioassay, HF; format: cell-based; conditions: 72 hours incubation at 50-100 μM
Description: (§6) Human tumor angiogenesis bioassay: Angiogenesis was induced by coculture of human endothelial cells (HUVECs) with tumor cells or defined angiogenic factor (FGF). Tumor cells media (from 24-hour serum-free cultures) were used to induce a biological angiogenic response using human glioma cell lines producing different concentrations of VEGF or by using purified factors such as 20 μM FGF. Endothelial cells were seeded onto Amgel-coated filters and induced with a angiogenic media+/−candidate MMP inhibitors. Varying concentrations of test compounds (0.5-500 μM) and incubation times (1-7 days) were applied, and endothelial cell differentiation (sprouting and tubule-like capillary formation) were examined by light microscopy and a computerized digital system.
as §5

[9] = test system: HT-1080B; assay: Amgel human tumor cell invasion bioassay, HT-1080B; format: cell-based; conditions: 72 hours incubation at 50-100 μM
Description: as §4, §5

[10] = test system: HT-1080R; assay: Amgel human tumor angiogenesis bioassay, HT-1080R; format: cell-based; conditions: 72 hours incubation at 50-100 μM
Description: as §6, §5

[11] = test system: HT-1080B; assay: Amgel human tumor angiogenesis bioassay, HT-1080B; format: cell-based; conditions: 72 hours incubation at 50-100 μM
Description: as §6, §5

[12] = test system: HF; assay: Amgel human tumor cell invasion bioassay, HF; format: cell-based; conditions: 72 hours incubation at 50-100 μM

SMILES	IC50 [1]	IC50 [2]	effect on nontumorigenic human fibroblasts cells (HF) [3]	effect on cell proliferation [4]	effect on cell viability [4]	melting point	IC50 [5]	IC50 [6]	% Inhibition, Tumor invasion [7]	% Inhibition, Tumor angiogenesis [8]	% Inhibition, Tumor invasion [9]	% Inhibition, Tumor angiogenesis [10]	% Inhibition, Tumor angiogenesis [11]	% Inhibition, Tumor invasion [12]	Inhibition Potencies, IC50, Endopeptidase [1]
O=C(NO)[C@@H]1CCCC[C@@H]1NS(=O)(=O)c1ccc(-c2ccccc2)cc1 (racemic) [compound 1c, (cis)-N-Hydroxy-2-[[(4-Biphenyl)sulfonyl]amino]cyclohexanecarboxamide]	> 20000 nM	> 3000 nM	neither compound 1c nor compound 2c had any effect	no effect	no effect	74 to 76 °C	150 nM	175 nM	–	–	–	–	–	–	–
O=C(NO)[C@@H]1CCCC[C@H]1NS(=O)(=O)c1ccc(-c2ccccc2)cc1 (racemic) [compound 2c, (trans)-N-Hydroxy-2-[[(4-Biphenyl)sulfonyl]amino]cyclohexanecarbox-amide]	> 20000 nM	> 3000 nM	neither compound 1c nor compound 2c had any effect	no effect	no effect	212 to 214 °C	125 nM	145 nM	60 ± 5%	No effect	50 ± 8%	40 ± 6%	45 ± 4%	No effect	–
O=C(NO)[C@@H]1CCCC[C@H]1NS(=O)(=O)c1ccc(Oc2ccccc2)cc1 (relative stereo) [compound 2d, (trans)-N-Hydroxy-2-[(4-Phenoxybenzenesulfonyl)amino]cyclohexane-carboxamide]	–	–	–	–	–	182 to 184 °C	–	–	–	–	–	–	–	–	–
CNC(=O)[C@H](Cc1c[nH]c2ccccc12)NC(=O)[C@@H](CC(=O)NO)CC(C)C [GM-6001, reference compound]	–	80 nM	–	–	–	–	–	–	–	–	–	–	–	–	not detectable
